Target: MLK-3 (Homo sapiens, UniProt Q16584)
Test: Biochemical assay for the inhibition of kinase activity for MLK-3 (33P-ATP, HOTSPOT filter binding)
Settings: activated MLK-3 20 nM, ATP 50 μM, myelin basic protein 20 μM, 20 minutes room temperature
Procedure: Biochemical Assay for the Inhibition of Kinase Activity for MLK-3: Myelin basic protein (20 μM final concentration) is dissolved in 20 mM Hepes (pH 7.5) containing […], […], 0.02% Brij35, 0.02 mg/ml BSA, 0.1 μM Na3VO4, 2 mM DTT, and 1% DMSO. Activated MLK-3 is added and mixed (20 nM final concentration), and inhibitors are added in DMSO. ^33P-ATP (specific activity 500 μCi/μL) is delivered into the reaction mixture to initiate the reaction (ATP concentration is 50 μM) and the mixture is incubated at room temperature for 20 minutes. % Activity is determined using a proprietary HOTSPOT™ microfluidic filter binding technology. See, Expert Opin. Drug Discov. 2008 June; 3(6): 607-621.

Sequence of MLK-3 (Q16584 whole entry): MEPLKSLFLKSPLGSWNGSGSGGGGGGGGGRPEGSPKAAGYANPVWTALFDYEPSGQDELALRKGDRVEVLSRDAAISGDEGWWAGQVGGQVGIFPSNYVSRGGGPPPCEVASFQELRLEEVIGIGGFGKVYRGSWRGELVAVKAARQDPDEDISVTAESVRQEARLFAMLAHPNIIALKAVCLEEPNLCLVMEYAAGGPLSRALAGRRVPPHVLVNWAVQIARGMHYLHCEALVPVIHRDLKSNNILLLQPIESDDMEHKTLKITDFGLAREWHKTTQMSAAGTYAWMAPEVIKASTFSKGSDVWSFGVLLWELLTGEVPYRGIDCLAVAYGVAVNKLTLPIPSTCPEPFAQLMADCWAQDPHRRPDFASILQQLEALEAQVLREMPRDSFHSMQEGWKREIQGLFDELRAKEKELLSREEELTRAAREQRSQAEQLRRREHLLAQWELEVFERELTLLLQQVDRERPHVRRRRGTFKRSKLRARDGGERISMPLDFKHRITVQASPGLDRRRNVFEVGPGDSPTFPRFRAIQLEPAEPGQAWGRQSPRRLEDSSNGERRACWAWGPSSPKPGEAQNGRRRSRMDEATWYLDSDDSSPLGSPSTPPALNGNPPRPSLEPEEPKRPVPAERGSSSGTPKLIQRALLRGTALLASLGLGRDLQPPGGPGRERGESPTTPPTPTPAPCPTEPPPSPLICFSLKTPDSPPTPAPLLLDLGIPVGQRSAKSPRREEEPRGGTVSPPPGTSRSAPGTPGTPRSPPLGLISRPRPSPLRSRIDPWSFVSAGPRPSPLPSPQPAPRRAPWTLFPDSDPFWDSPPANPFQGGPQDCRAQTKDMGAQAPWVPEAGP

IC50, < 5000 nM:
CN1CCN(Cc2ccc(-c3ccc4ncc(-c5cc6ccccc6s5)n4n3)cc2)CC1 [Compound 39, 3-(benzo[b]thiophen-2-yl)-6-(4-((4-methylpiperazin-1-yl)methyl)phenyl)imidazo[1,2-b]pyridazine]
CN1CCN(Cc2cccc(-c3ccc4ncc(-c5cc6ccccc6s5)n4n3)c2)CC1 [Compound 40, 3-(benzo[b]thiophen-2-yl)-6-(3-((4-methylpiperazin-1-yl)methyl)phenyl)imidazo[1,2-b]pyridazine]
COc1ccc2c(c1)cc(-c1cnc3ccc(Nc4ccc(OC)c(OC)c4)nn13)n2C [Compound 193, 3-(5-methoxy-1-methyl-1H-indol-2-yl)-N-(3,4-dimethoxyphenyl)imidazo[1,2-b]pyridazin-6-amine]
COc1ccc(Nc2ccc3ncc(-c4cc(OC)c(OC)c(OC)c4)n3n2)cc1OC [Compound 11, 3-(3,4,5-trimethoxyphenyl)-N-(3,4-dimethoxyphenyl)imidazo[1,2-b]pyridazin-6-amine]
COc1ccc(Nc2ccc3ncc(-c4cccc(O)c4)n3n2)cc1OC [Compound 9, 3-(6-(3,4-dimethoxyphenylamino)imidazo[1,2-b]pyridazin-3-yl)phenol]
O=c1cccc(Nc2ccc3ncc(-c4cc5ccccc5s4)n3n2)[nH]1 [Compound 45, 6-(3-(benzo[b]thiophen-2-yl)imidazo[1,2-b]pyridazin-6-ylamino)pyridin-2-ol]
COc1ccc2[nH]c(-c3cnc4ccc(N[C@H]5CC[C@H](OC)CC5)nn34)cc2c1 [Compound 198, trans-3-(5-methoxy-1H-indol-2-yl)-N-(4-methoxycyclohexyl)imidazo[1,2-b]pyridazin-6-amine]
CCCN(C)c1ccc2ncc(-c3ccc4[nH]ccc4c3)n2n1 [Compound 158, 3-(1H-indol-5-yl)-N-methyl-N-propylimidazo[1,2-b]pyridazin-6-amine]
c1cc2cc(-c3cnc4ccc(NCC5CC5)nn34)ccc2[nH]1 [Compound 150, N-(cyclopropylmethyl)-3-(1H-indol-5-yl)imidazo[1,2-b]pyridazin-6-amine]
COc1ccc(Nc2ccc3ncc(-c4cc5cc(OC)c(OC)c(OC)c5s4)n3n2)cc1OC [Compound 83, 3-(5,6,7-trimethoxybenzo[b]thiophen-2-yl)-N-(3,4-dimethoxyphenyl)imidazo[1,2-b]pyridazin-6-amine]
COc1ccc(Nc2ccc3ncc(-c4cc5cncc(O)c5s4)n3n2)cc1OC [Compound 211, 2-(6-(3,4-dimethoxyphenylamino)imidazo[1,2-b]pyridazin-3-yl)thieno[3,2-c]pyridin-7-ol]
O[C@H]1CC[C@H](Nc2ccc3ncc(-c4cc5ccncc5s4)n3n2)CC1 [Compound 219, trans-4-(3-(thieno[2,3-c]pyridin-2-yl)imidazo[1,2-b]pyridazin-6-ylamino)cyclohexanol]
COc1ccc(Nc2ccc3ncc(-c4cc5c(OC)c(OC)c(OC)cc5s4)n3n2)cc1OC [Compound 76, 3-(4,5,6-trimethoxybenzo[b]thiophen-2-yl)-N-(3,4-dimethoxyphenyl)imidazo[1,2-b]pyridazin-6-amine]
COc1ccc(Nc2ccc3ncc(-c4cc5cccc(OC(F)(F)F)c5s4)n3n2)cc1OC [Compound 188, N-(3,4-dimethoxyphenyl)-3-(7-(trifluoromethoxy)benzo[b]thiophen-2-yl)imidazo[1,2-b]pyridazin-6-amine]

IC50, < 100 nM:
COc1cc2cc(-c3cnc4ccc(N(C)[C@H]5CC[C@H](O)CC5)nn34)sc2cc1OC [Compound 177, trans-4-(N-(3-(5,6-dimethoxybenzo[b]thiophen-2-yl)imidazo[1,2-b]pyridazin-6-yl)-N-methylamino)cyclohexanol]
COc1cc2cc(-c3cnc4ccc(NC5CCC[C@H](O)C5)nn34)sc2cc1OC (stereo in doubt) [Compound 174, 3-(3-(5,6-dimethoxybenzo[b]thiophen-2-yl)imidazo[1,2-b]pyridazin-6-ylamino)cyclohexanol]
COc1cccc2cc(-c3cnc4ccc(N[C@H]5CC[C@H](O)CC5)nn34)[nH]c12 [Compound 87, trans-4-(3-(7-methoxy-1H-indol-2-yl)imidazo[1,2-b]pyridazin-6-ylamino)cyclohexanol]
COc1cc2cc(-c3cnc4ccc(-c5ccc6[nH]ccc6c5)nn34)sc2cc1OC [Compound 69, 6-(1H-indol-5-yl)-3-(5,6-dimethoxybenzo[b]thiophen-2-yl)imidazo[1,2-b]pyridazine]
Cc1cncc2cc(-c3cnc4ccc(N[C@H]5CC[C@H](O)CC5)nn34)sc12 [Compound 215, trans-4-(3-(7-methylthieno[3,2-c]pyridin-2-yl)imidazo[1,2-b]pyridazin-6-ylamino)cyclohexanol]
COc1cc2cc(-c3cnc4ccc(NCCC(C)CO)nn34)sc2cc1OC (stereo not shown) [Compound 171, 4-(3-(5,6-dimethoxybenzo[b]thiophen-2-yl)imidazo[1,2-b]pyridazin-6-ylamino)-2-methylbutan-1-ol]
COc1cc2cc(-c3cnc4ccc(Nc5cccc(C(=O)O)c5)nn34)sc2cc1OC [Compound 71, 3-(3-(5,6-dimethoxybenzo[b]thiophen-2-yl)imidazo[1,2-b]pyridazin-6-ylamino)benzoic acid]
COc1ccc(Nc2ccc3ncc(-c4cc5cccc(O)c5s4)n3n2)cc1OC [Compound 79, 2-(6-(3,4-dimethoxyphenylamino)imidazo[1,2-b]pyridazin-3-yl)benzo[b]thiophen-7-ol]

IC50, 100 to 500 nM:
Cc1cncc2cc(-c3cnc4ccc(N(C)[C@H]5CC[C@H](O)CC5)nn34)sc12 [Compound 221, trans-4-(N-methyl-N-(3-(7-methylthieno[3,2-c]pyridin-2-yl)imidazo[1,2-b]pyridazin-6-yl)amino)cyclohexanol]
O[C@H]1CC[C@H](Nc2ccc3ncc(-c4cc5cccnc5s4)n3n2)CC1 [Compound 205, trans-4-(3-(thieno[2,3-b]pyridin-2-yl)imidazo[1,2-b]pyridazin-6-ylamino)cyclohexanol]
CO[C@H]1CC[C@H](N(C)c2ccc3ncc(-c4cc5cncc(C)c5s4)n3n2)CC1 [Compound 220, N-((1r,4r)-4-methoxycyclohexyl)-N-methyl-3-(7-methylthieno[3,2-c]pyridin-2-yl)imidazo[1,2-b]pyridazin-6-amine]
COc1ccc(Nc2ccc3ncc(-c4cc5cccc(OC(C)=O)c5s4)n3n2)cc1OC [Compound 78, 2-(6-(3,4-dimethoxyphenylamino)imidazo[1,2-b]pyridazin-3-yl)benzo[b]thiophen-7-yl acetate]
O[C@H]1CC[C@H](Nc2ccc3ncc(-c4cc5ccccc5[nH]4)n3n2)CC1 [Compound 88, trans-4-(3-(1H-indol-2-yl)imidazo[1,2-b]pyridazin-6-ylamino)cyclohexanol]
COc1ccc2cc(-c3cnc4ccc(Nc5ccc(OC)c(OC)c5)nn34)sc2c1 [Compound 72, 3-(6-methoxybenzo[b]thiophen-2-yl)-N-(3,4-dimethoxyphenyl)imidazo[1,2-b]pyridazin-6-amine]
COc1ccc(Nc2ccc3ncc(-c4cc5cc(OC)c(OC)cc5[nH]4)n3n2)cc1OC [Compound 197, 3-(5,6-dimethoxy-1H-indol-2-yl)-N-(3,4-dimethoxyphenyl)imidazo[1,2-b]pyridazin-6-amine]
O[C@H]1CC[C@H](Nc2ccc3ncc(-c4ccc5ccccc5c4)n3n2)CC1 [Compound 161, trans-4-(3-(naphthalen-3-yl)imidazo[1,2-b]pyridazin-6-ylamino)cyclohexanol]
Cc1cccc2cc(-c3cnc4ccc(N[C@H]5CC[C@H](O)CC5)nn34)sc12 [Compound 203, trans-4-(3-(7-methylbenzo[b]thiophen-2-yl)imidazo[1,2-b]pyridazin-6-ylamino)cyclohexanol]
OCCCNc1ccc2ncc(-c3cc4ccccc4s3)n2n1 [Compound 109, 3-(3-(benzo[b]thiophen-2-yl)imidazo[1,2-b]pyridazin-6-ylamino)propan-1-ol]
COc1ccc2sc(-c3cnc4ccc(Nc5ccc(OC)c(OC)c5)nn34)cc2c1 [Compound 167, 3-(5-methoxybenzo[b]thiophen-2-yl)-N-(3,4-dimethoxyphenyl)imidazo[1,2-b]pyridazin-6-amine]

IC50, 500 to 1000 nM:
O[C@H]1CC[C@H](Nc2ccc3ncc(-c4ccc5cc(F)ccc5c4)n3n2)CC1 [Compound 162, trans-4-(3-(2-fluoronaphthalen-6-yl)imidazo[1,2-b]pyridazin-6-ylamino)cyclohexanol]
Cc1ccc2sc(-c3cnc4ccc(N[C@H]5CC[C@H](O)CC5)nn34)cc2c1 [Compound 192, trans-4-(3-(5-methylbenzo[b]thiophen-2-yl)imidazo[1,2-b]pyridazin-6-ylamino)cyclohexanol]
COc1cccc2cc(-c3cnc4ccc(N[C@H]5CC[C@H](OC)CC5)nn34)sc12 [Compound 200, trans-3-(7-methoxybenzo[b]thiophen-2-yl)-N-(4-methoxycyclohexyl)imidazo[1,2-b]pyridazin-6-amine]
O=C(O)c1ccc(Nc2ccc3ncc(-c4cc5ccccc5s4)n3n2)cc1 [Compound 25, 4-(3-(benzo[b]thiophen-2-yl)imidazo[1,2-b]pyridazin-6-ylamino)benzoic acid]

Source: US9370515B2, “Mixed lineage kinase inhibitors and method of treatments” (CALIFIA BIO, INC., priority 2013, dated 2016)
